The values that follow come from paper PMC12621043, “Un-LOK-ing a New Approach for Conformational Selective Targeting of STK10 (LOK)” (ACS Medicinal Chemistry Letters, 2025).

Molecules are shown by their SMILES.

Experiment in all cases: DSF Tm panel
Common to all, as to assay type: binding
Holding throughout (details): 10 μM compound

The target of one assay is T1, FLT1A (Homo sapiens, UniProt P17948).
T1 construct: purchased in-house DSF kinase panel (SGC-style construct names; the trailing letter is the construct ID)
T1 sequence (P17948 801-1158): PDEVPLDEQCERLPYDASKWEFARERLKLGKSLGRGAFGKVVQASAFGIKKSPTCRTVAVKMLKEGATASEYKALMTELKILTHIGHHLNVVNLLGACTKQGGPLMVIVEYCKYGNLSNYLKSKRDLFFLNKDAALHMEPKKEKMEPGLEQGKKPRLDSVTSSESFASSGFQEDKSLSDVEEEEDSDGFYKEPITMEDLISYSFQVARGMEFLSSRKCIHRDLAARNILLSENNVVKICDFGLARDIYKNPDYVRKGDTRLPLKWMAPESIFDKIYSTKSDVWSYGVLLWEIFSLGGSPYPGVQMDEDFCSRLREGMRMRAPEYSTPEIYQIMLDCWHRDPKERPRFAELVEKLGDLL

Another assay has as its target T2, MERTK (Homo sapiens, UniProt Q12866).
T2 construct: purchased in-house DSF kinase panel (SGC-style construct names; the trailing letter is the construct ID)
T2 sequence (Q12866 570-864): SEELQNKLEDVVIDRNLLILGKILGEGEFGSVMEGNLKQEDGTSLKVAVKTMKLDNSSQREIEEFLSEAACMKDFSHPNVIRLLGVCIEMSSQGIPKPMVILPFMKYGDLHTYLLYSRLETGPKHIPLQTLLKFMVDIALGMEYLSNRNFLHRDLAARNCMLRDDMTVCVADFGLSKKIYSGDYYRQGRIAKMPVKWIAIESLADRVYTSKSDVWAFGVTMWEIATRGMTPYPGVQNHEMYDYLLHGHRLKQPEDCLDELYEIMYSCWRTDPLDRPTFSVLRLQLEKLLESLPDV

Another assay addresses T3, PDK4A (Homo sapiens, UniProt Q16654).
T3 construct: purchased in-house DSF kinase panel (SGC-style construct names; the trailing letter is the construct ID)

Another assay has as its system RPS6KA6A.
A further assay has as its target T4, STK38LA (Homo sapiens, UniProt Q9Y2H1).
T4 construct: purchased in-house DSF kinase panel (SGC-style construct names; the trailing letter is the construct ID)

The target in the next assay is T5, WNK1A (Homo sapiens, UniProt Q9H4A3).
T5 construct: purchased in-house DSF kinase panel (SGC-style construct names; the trailing letter is the construct ID)

For a further assay, the target named is T6, CSNK1EA (Homo sapiens, UniProt P49674).
T6 construct: purchased in-house DSF kinase panel (SGC-style construct names; the trailing letter is the construct ID)
T6 sequence (P49674 1-294): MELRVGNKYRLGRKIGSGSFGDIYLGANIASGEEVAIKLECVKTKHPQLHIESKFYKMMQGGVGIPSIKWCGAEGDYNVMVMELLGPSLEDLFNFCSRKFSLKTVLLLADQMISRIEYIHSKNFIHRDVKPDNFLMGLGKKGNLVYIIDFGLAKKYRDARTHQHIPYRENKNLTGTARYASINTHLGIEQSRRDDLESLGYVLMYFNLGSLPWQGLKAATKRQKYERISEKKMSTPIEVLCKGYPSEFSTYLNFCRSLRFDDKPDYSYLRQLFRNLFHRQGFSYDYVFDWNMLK

A further assay concerns the target T7, EPHB1A (Homo sapiens, UniProt P54762).
T7 construct: purchased in-house DSF kinase panel (SGC-style construct names; the trailing letter is the construct ID)
T7 sequence (P54762 602-896): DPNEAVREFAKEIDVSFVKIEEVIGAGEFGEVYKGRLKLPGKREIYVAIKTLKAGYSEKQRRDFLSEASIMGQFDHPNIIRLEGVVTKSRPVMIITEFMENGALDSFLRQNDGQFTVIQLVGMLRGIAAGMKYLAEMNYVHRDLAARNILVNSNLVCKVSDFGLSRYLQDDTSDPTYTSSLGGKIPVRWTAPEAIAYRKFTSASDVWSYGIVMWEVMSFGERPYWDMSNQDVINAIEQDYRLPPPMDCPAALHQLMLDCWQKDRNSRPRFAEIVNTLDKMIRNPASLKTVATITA

In another assay the target is T8, MAPKAPK2A (Homo sapiens, UniProt P49137).
T8 construct: purchased in-house DSF kinase panel (SGC-style construct names; the trailing letter is the construct ID)

The target of the next assay is T9, NEK2A (Homo sapiens, UniProt P51955).
T9 construct: purchased in-house DSF kinase panel (SGC-style construct names; the trailing letter is the construct ID)
T9 sequence (P51955 1-271): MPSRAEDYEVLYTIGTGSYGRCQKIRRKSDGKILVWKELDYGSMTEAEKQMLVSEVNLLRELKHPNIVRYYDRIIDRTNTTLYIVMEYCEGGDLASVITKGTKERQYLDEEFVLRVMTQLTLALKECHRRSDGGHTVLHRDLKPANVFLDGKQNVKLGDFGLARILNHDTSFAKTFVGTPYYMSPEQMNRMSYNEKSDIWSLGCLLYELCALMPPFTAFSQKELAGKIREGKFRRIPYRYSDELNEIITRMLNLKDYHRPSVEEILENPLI

A further assay addresses T10, TLK1A (Homo sapiens, UniProt Q9UKI8).
T10 construct: purchased in-house DSF kinase panel (SGC-style construct names; the trailing letter is the construct ID)
T10 sequence (Q9UKI8 456-734): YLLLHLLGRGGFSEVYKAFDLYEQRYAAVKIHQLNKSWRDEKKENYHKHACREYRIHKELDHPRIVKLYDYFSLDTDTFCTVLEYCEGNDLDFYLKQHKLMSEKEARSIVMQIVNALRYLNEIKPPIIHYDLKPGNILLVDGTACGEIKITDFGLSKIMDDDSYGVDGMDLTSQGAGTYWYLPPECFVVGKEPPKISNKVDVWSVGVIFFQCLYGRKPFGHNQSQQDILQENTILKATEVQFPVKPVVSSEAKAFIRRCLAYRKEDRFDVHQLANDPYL

T5 sequence (Q9H4A3 206-483): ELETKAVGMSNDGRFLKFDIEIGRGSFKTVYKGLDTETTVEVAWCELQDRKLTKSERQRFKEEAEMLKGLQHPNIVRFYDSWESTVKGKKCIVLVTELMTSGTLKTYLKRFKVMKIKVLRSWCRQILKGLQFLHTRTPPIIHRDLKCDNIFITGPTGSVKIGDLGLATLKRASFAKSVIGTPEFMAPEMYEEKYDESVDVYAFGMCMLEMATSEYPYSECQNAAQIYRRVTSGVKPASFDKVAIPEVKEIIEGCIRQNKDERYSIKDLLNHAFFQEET
T8 sequence (P49137 64-325): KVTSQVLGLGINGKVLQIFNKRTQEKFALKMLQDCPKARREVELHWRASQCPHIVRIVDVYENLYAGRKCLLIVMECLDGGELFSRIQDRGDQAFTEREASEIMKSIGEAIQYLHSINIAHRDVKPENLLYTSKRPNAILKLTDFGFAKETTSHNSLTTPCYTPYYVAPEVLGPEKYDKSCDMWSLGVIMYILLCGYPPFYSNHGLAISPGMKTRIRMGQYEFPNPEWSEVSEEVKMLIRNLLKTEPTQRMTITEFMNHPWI
T3 sequence (Q16654 whole entry): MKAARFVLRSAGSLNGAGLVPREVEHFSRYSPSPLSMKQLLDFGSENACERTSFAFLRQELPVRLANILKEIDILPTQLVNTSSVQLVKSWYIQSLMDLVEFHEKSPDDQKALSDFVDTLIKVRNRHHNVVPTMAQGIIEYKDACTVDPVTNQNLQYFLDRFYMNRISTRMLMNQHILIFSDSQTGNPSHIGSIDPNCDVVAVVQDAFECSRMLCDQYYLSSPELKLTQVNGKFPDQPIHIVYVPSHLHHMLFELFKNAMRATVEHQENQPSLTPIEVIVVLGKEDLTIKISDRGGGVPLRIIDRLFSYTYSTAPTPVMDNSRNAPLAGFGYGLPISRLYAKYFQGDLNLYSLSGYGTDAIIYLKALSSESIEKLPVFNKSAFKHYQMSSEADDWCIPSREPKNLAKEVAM
T4 sequence (Q9Y2H1 90-453): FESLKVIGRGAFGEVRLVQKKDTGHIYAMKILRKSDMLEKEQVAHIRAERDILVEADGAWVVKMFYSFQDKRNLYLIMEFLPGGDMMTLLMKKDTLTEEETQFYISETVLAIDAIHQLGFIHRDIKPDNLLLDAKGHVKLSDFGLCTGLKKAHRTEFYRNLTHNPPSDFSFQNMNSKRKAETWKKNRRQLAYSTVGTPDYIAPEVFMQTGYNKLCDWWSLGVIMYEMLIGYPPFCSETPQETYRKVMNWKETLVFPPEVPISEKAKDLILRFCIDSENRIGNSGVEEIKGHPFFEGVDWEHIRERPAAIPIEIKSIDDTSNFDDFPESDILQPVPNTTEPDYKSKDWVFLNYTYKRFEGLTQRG

As to `O=C(NCc1ccccc1)Nc1ccc2cc1OCCOCCNc1ccn3ncc-2c3n1` [compound 16], the ΔTm at 10 µM on FLT1A is 4.7 °C; at MERTK, 1.4 °C; on PDK4A, -0.7 °C; on STK38LA it was 0.8 °C; on WNK1A, 0 °C. Moreover, in the assay on RPS6KA6A, the “ΔTm RPS6KA6A” value is -1,2 °C.

On to `O=C(NCc1ccccc1Cl)Nc1ccc2cc1OCCOCCNc1ccn3ncc-2c3n1` [compound 17], for which the ΔTm at 10 µM on FLT1A came to 2.1 °C; at MERTK, 1.6 °C; on PDK4A, 0.8 °C; at STK38LA, 0.7 °C; at WNK1A, 0.5 °C. For the same compound, the “ΔTm RPS6KA6A” value in the assay with RPS6KA6A was -0,3 °C.

`O=C(NCc1cccc(Cl)c1)Nc1ccc2cc1OCCOCCNc1ccn3ncc-2c3n1` [compound 18]: the ΔTm at 10 µM was 3.7 °C at FLT1A; 1.8 °C at MERTK; 1 °C on PDK4A; 1.1 °C on STK38LA; 0.09 °C on WNK1A. In addition, the “ΔTm RPS6KA6A” value in the assay with RPS6KA6A is -0,3 °C.

Take `O=C(NCc1ccc(Cl)cc1)Nc1ccc2cc1OCCOCCNc1ccn3ncc-2c3n1` [compound 19]: the ΔTm at 10 µM at FLT1A is 3.4 °C; at MERTK it was 2.5 °C; on PDK4A it was 0.8 °C; at STK38LA, 0.6 °C; on WNK1A, -0.2 °C. Further, the “ΔTm RPS6KA6A” value in the assay with RPS6KA6A was -0,2 °C.

As to `O=C(NCc1ccc(Cl)cc1Cl)Nc1ccc2cc1OCCOCCNc1ccn3ncc-2c3n1` [compound 20], the ΔTm at 10 µM amounted to 1.4 °C at FLT1A; 2.2 °C at MERTK; 1.1 °C at PDK4A; 0.7 °C on STK38LA; 0.4 °C on WNK1A. Besides, the “ΔTm RPS6KA6A” value in the assay on RPS6KA6A is 0,5 °C.

Regarding `O=C(NCc1ccc(Cl)cc1F)Nc1ccc2cc1OCCOCCNc1ccn3ncc-2c3n1` [compound 21], the ΔTm at 10 µM at FLT1A was 2.6 °C; at MERTK, 2.7 °C; on PDK4A, 1.1 °C; on STK38LA, 1.2 °C; at WNK1A it was -0.2 °C. For the same compound, the “ΔTm RPS6KA6A” value with RPS6KA6A was -0,7 °C.

Turning to `Cc1cc(Cl)ccc1CNC(=O)Nc1ccc2cc1OCCOCCNc1ccn3ncc-2c3n1` [compound 23], the ΔTm at 10 µM stood at 2 °C at FLT1A; 3.1 °C on MERTK; 0.6 °C on PDK4A; 1.7 °C on STK38LA; 1.6 °C at WNK1A. In addition, the “ΔTm RPS6KA6A” value in the assay on RPS6KA6A was -0,3 °C.

Take `Cc1cc(Br)ccc1CNC(=O)Nc1ccc2cc1OCCOCCNc1ccn3ncc-2c3n1` [compound 24]: the ΔTm at 10 µM on CSNK1EA was 0.7 °C; on EPHB1A, 0.2 °C; on MAPKAPK2A, 0.1 °C; on NEK2A, -1.3 °C; at TLK1A, 1 °C.

Take `Cc1ccc(F)cc1CNC(=O)Nc1ccc2cc1OCCOCCNc1ccn3ncc-2c3n1` [compound 26]: the ΔTm at 10 µM was 0.7 °C at CSNK1EA; 0.3 °C at EPHB1A; 0.1 °C at MAPKAPK2A; -1.2 °C at NEK2A; 0.9 °C on TLK1A.

As for `O=C(NCc1ccccc1C(F)(F)F)Nc1ccc2cc1OCCOCCNc1ccn3ncc-2c3n1` [compound 27], the thermal shift (ΔTm) at 10 µM on CSNK1EA was 0 °C; on EPHB1A, 0.3 °C; on MAPKAPK2A it was 0.1 °C; on NEK2A it was -0.4 °C; on TLK1A, 1.3 °C.

As for `O=C(NCc1ccc(C(F)(F)F)cc1)Nc1ccc2cc1OCCOCCNc1ccn3ncc-2c3n1` [compound 28], the ΔTm at 10 µM at CSNK1EA is -0.2 °C; at EPHB1A, 0.5 °C; on MAPKAPK2A it was 0.4 °C; on NEK2A it was 0.4 °C; at TLK1A, 1.6 °C.

Take `COc1ccccc1CNC(=O)Nc1ccc2cc1OCCOCCNc1ccn3ncc-2c3n1` [compound 29]: the ΔTm at 10 µM is 0.7 °C on CSNK1EA; 0.1 °C on EPHB1A; 0.2 °C at MAPKAPK2A; -0.3 °C at NEK2A; 0.4 °C at TLK1A.

As to `COc1cccc(CNC(=O)Nc2ccc3cc2OCCOCCNc2ccn4ncc-3c4n2)c1` [compound 30], the ΔTm at 10 µM was 0.7 °C at CSNK1EA; 0.2 °C on EPHB1A; 0.2 °C at MAPKAPK2A; -0.5 °C on NEK2A; 0.7 °C at TLK1A.

Consider `COc1ccc(CNC(=O)Nc2ccc3cc2OCCOCCNc2ccn4ncc-3c4n2)cc1` [compound 31], for which the ΔTm at 10 µM is 0.6 °C at CSNK1EA; 0.4 °C on EPHB1A; 0.2 °C at MAPKAPK2A; -1.3 °C on NEK2A; 1.1 °C at TLK1A.

As for `COc1ccc(CNC(=O)Nc2ccc3cc2OCCOCCNc2ccn4ncc-3c4n2)cc1F` [compound 32], the ΔTm at 10 µM at CSNK1EA was 0.3 °C; on EPHB1A, 0.3 °C; on MAPKAPK2A it was 0.2 °C; at NEK2A it was -1.3 °C; on TLK1A, 1.2 °C.

Turning to `COc1cc(CNC(=O)Nc2ccc3cc2OCCOCCNc2ccn4ncc-3c4n2)ccc1F` [compound 33], the ΔTm at 10 µM on CSNK1EA was 0.6 °C; on EPHB1A, 0.5 °C; at MAPKAPK2A, 0.1 °C; on NEK2A, -1.3 °C; at TLK1A, 0.9 °C.

As to `C[C@H](NC(=O)Nc1ccc2cc1OCCOCCNc1ccn3ncc-2c3n1)c1ccccc1` [compound 34], the ΔTm at 10 µM at CSNK1EA was 0.4 °C; on EPHB1A, 0.1 °C; on MAPKAPK2A it was 0.1 °C; at NEK2A, -1.3 °C; on TLK1A, 0.4 °C.

As for `CN1CCN(C(=O)Nc2ccc3cc2OCCOCCNc2ccn4ncc-3c4n2)CC1` [compound 35], the ΔTm at 10 µM is 4.4 °C on FLT1A; 0.4 °C on MERTK; 0.5 °C at PDK4A; 0.4 °C on STK38LA; 0.4 °C on WNK1A. Besides, the “ΔTm RPS6KA6A” value in the assay on RPS6KA6A was -0,3 °C.

The ΔTm is the change in melting temperature against a reference sample.
